According to patent US20060264418A1, “6-(2,2,2-Trifluoroethylamino-7-chloro-2,3,4,5-tetrahydro-1h-benzo[d] azephine as a 5-ht2c receptor agonist” (priority 2003, published 2006):

Key:
[1] = target: T1, human 5-HT2B receptor (Homo sapiens, UniProt P41595); test: G alpha q-GTPγ[35S] binding agonist activity assay (ISPA), 5-HT2B; type: biochemical
T1 construct: expressed in transfected cells; host or cells: AV12 cells
Procedure: Agonist Activity Assays (G Alpha g-GTPγ[^35S] Binding Assays)
The 5-HT2 receptors are functionally coupled to specific G-proteins. Agonist activation of 5-HT2 G-protein-coupled receptors results in the release of GDP from the α-subunit (G alpha q or G alpha i) of the G-protein and the subsequent binding of GTP. The binding of the stable analog GTPγ[^35S] is an indicator of receptor activation (i.e. agonist activity).
The area under the dose response curve (AUC) is also determined for each receptor subtype and used to measure the test compound's selectivity for the 5-HT2C receptor over the 5-HT2A and 5-HT2B receptors, expressed as Selectivity Ratios (AUC 2C/2A and AUC 2C/2B, respectively). The Selectivity Ratios allow the assessment of selectivity based on both potency and efficacy. A selectivity measure that incorporates both potency and efficacy at the 5-HT2C receptor, as compared to the 5-HT2A and 5-HT2B.receptors, is considered important due to the adverse events associated with 5-HT2A and 5-HT2B agonist activity (see introduction). […]
G alpha q-GTPγ[^35S] […] Quantitate the GTPγ[^35] binding by microtiter plate scintillation spectrometry (Wallac Trilux MicroBeta™ scintillation counter). […]

[2] = target: D2 dopaminergic receptor (Homo sapiens, UniProt P14416); test: Radioligand receptor binding assay, D2 dopaminergic
D2 dopaminergic receptor, sequence (P14416 whole entry): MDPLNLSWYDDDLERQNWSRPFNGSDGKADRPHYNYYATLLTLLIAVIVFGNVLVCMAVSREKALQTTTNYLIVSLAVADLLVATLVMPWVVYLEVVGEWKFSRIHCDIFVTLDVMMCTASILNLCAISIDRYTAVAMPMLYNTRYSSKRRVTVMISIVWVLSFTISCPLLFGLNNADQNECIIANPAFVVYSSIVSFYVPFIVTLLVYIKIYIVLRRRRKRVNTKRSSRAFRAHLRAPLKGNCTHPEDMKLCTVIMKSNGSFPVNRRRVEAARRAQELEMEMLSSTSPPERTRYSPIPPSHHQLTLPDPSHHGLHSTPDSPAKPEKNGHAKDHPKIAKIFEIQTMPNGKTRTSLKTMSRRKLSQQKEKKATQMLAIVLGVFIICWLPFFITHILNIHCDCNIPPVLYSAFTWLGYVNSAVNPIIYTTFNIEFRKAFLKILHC

[3] = target: T2, 5-HT2C receptor (Homo sapiens, UniProt P28335); test: G alpha q-GTPγ[35S] binding agonist activity assay (ISPA), 5-HT2C; type: biochemical; design: expressed in transfected cells; host or cells: AV12 cells
T2 sequence (P28335 33-458): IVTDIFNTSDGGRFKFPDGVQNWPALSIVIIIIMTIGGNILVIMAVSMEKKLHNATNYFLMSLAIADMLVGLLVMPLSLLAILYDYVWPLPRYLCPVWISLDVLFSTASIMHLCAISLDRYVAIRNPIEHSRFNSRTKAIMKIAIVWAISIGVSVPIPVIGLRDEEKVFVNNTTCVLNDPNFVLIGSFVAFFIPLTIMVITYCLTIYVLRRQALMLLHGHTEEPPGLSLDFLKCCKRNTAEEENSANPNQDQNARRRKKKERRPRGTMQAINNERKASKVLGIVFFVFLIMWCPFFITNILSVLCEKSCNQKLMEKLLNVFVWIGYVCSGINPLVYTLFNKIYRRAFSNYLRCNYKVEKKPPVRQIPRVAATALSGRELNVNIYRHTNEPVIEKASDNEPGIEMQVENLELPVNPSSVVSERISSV

T1 sequence (P41595 whole entry): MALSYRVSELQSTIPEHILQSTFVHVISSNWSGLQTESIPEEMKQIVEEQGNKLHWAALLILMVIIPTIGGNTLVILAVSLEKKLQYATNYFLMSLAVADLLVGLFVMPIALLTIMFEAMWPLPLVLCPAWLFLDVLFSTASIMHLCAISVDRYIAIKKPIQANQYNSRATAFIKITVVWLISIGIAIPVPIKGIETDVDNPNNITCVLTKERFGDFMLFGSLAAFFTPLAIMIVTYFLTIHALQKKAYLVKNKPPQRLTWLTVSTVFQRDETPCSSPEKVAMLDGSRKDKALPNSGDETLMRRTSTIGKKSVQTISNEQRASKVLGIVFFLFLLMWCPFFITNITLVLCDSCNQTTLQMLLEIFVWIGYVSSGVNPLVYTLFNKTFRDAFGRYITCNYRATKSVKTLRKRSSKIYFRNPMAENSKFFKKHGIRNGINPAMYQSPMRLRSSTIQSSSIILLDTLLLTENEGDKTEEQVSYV

SMILES: FC(F)(F)CNc1c(Cl)ccc2c1CCNCC2.O=C(O)CCC(=O)O [Example 2, 7-Chloro-6-(2,2,2-trifluoroethylamino)-2,3,4,5-tetrahydro-1H-benzo[d]azepine Succinic Acid Salt]
- Emax [1]: 33.9 ± 1%
- EC50 ([1]; AV12 cell membranes with human 5-HT2B, ± standard error of the mean): 119 ± 34 nM
- IC50 [2]: > 3 µM
- EC50 [3]: 11.8 ± 2.8 nM
- AUC 2C/2A Selectivity Ratio ([3]; ratio of AUCs normalized to 5-HT, 5-HT2C receptor/5-HT2A receptor): 2.2
- AUC 2C/2B Selectivity Ratio ([3]; ratio of AUCs normalized to 5-HT, 5-HT2C receptor/5-HT2B receptor): 3.8
- Emax ([3]; read-out: 5HT2C Emax): 106 ± 2.8%
